The subject of assay [1] is bronchospasm (pilocarpine nitrate). Kind of assay: Inhibition of pilocarpine-induced bronchospasm in anesthetized dogs (pulmonary mechanics). The format is in vivo, mongrel dogs. The following applies: for ED50: Canis lupus familiaris, iv, anesthetized dogs, cumulative i.v. doses, pilocarpine-induced bronchospasm, read-out: ID50 Bronchospasm; for Pulmonary Selectivity*: dogs, i.v., >1 indicates more potent as a bronchodilator than as an antisecretory agent. The procedure: (§1) In an additional testing procedure, mongrel dogs of either sex, 10.6 to 15.3 kg, are anesthetized with sodium pentobarbital, 30 mg/kg i.v. and then prepared for the monitoring of pulmonary mechanics. A Buxco pulmonary mechanics computer is used to calculate pulmonary resistance, dynamic compliance, and tidal volume from transpulmonary pressure and flow data. Respiratory rate, heart rate and mean arterial blood pressure are also monitored. The femoral vein is cannulated for the delivery of drugs. Pilocarpine nitrate (0.2 mg/kg/hr) is than infused to induce a bronchospasm and salivary flow. […] Salivary output is collected from a catheterized Wharton's duct at five minute intervals. After salivation has stabilized, 3 control collections are taken at 5 minute intervals followed by a series of cumulative i.v. doses of test compound (1, 3, 10, 30, 100, 300, 1000, 3000, and 10,000 μg/kg) that are injected every 5 minutes for 45 minutes. The percent inhibition of both the bronchospasm and salivation are calculated for each dose with a return to pre-pilocarpine resistance levels or cessation of salivation equal to a 100% inhibition.

Assay [2] has as its system salivation (pilocarpine nitrate). The assay is described as follows: Inhibition of pilocarpine-induced salivation in anesthetized dogs. The following applies: Canis lupus familiaris, iv, cumulative i.v. doses, pilocarpine-induced salivary flow, read-out: ID50 Salivation. Format: in vivo, mongrel dogs. How it is done:
as §1

Assay [3] has as its system collapse on exposure to an aerosol of methacholine. Kind of assay: Anticholinergic test: prolongation of collapse time in conscious guinea pigs exposed to an aerosol of methacholine. The format is in vivo. The conditions noted are these: guinea pig, 25 mg/kg intraperitoneally; 10 minutes methacholine aerosol; Control 1.9 to 2.0. How it is done:
The compounds of the invention display anticholinergic properties when tested by the following procedure: Conscious guinea pigs, six at a time, are put into a sealed chamber and exposed for 10 minutes to an aerosol of methacholine. Untreated animals or those treated with vehicle will collapse in 1.9±0.1 minutes. Groups of animals are injected intraperitoneally with 25 mg/kg of test compound and exposed in the chamber under the same conditions. Compounds which prolong the collapse time past that of the control animals are considered active.

Each structure is given as a SMILES string.

For `CCOc1cc2oc(=O)c3c(c2cc1OCC)CCN(CC(C)N(C)C)C3.Cl.Cl` (stereo not drawn) [EtO EtO H Me Me, 3-[2-(Dimethylamino)propyl]-1,2,3,4-tetrahydro-8,9-diethoxy-5H-[1]benzopyrano[3,4-c]pyridin-5-one dihydrochloride], in assay [1], the ED50 was determined as 0.147 mg/kg and the “Pulmonary Selectivity*” value was found to be 2.1. Moreover, in assay [2], the ED50 stood at 0.303 mg/kg. The “(Minutes Protection)” value in assay [3] amounted to 7.3 min.
For the compound `CCN(CC)C(C)CN1CCc2c(c(=O)oc3ccccc23)C1` (stereo not drawn) [H H H Et Et, 3-[2-(Diethylamino)propyl]-1,2,3,4-tetrahydro-5H-[1]benzopyrano[3,4-c]pyridin-5-one], in assay [1], the ED50 came to 0.336 mg/kg and the “Pulmonary Selectivity*” value came out at 7. Moreover, in assay [2], the ED50 turned out to be 2.31 mg/kg. Also, the “(Minutes Protection)” value in assay [3] was found to be 10.0 min.
For `CCNC(C)CN1CCc2c(c(=O)oc3ccccc23)C1` (stereo not drawn) [H H H Et H, 3-[2-(Ethylamino)propyl]-1,2,3,4-tetrahydro-5H-[1]benzopyrano[3,4-c]pyridin-5-one], in that order: 0.21 mg/kg, 6, 1.23 mg/kg and 10.0 min.
Regarding `CC(CN1CCc2c(c(=O)oc3ccccc23)C1)N(C)C` (stereo not drawn) [H H H Me Me, 3-[2-(Dimethylamino)propyl]-1,2,3,4-tetrahydro-5H-[1]benzopyrano[3,4-c]pyridin-5-one], in assay [1], the ED50 stood at 0.192 mg/kg and the “Pulmonary Selectivity*” value was found to be 22. The ED50 in assay [2] worked out at 4.15 mg/kg. Besides, the “(Minutes Protection)” value in assay [3] was found to be 10.0 min.
For `CCN(CC)C(C)CN1CCc2c(c(=O)oc3cc(C)ccc23)C1` (stereo not drawn) [H Me H Et Et, 3-[2-(Diethylamino)propyl]-1,2,3,4-tetrahydro-8-methyl-5H-[1]benzopyrano[3,4-c]pyridin-5-one], in that order: 0.111 mg/kg, 4.6, 0.51 mg/kg and 6.6 min.
On the same counts, the results for `CCN(C)C(C)CN1CCc2c(c(=O)oc3cc(C)ccc23)C1` (stereo not drawn) [H Me H Me Et, 3-[2-(Ethylmethylamino)propyl]-1,2,3,4-tetrahydro-8-methyl-5H-[1]benzopyrano[3,4-c]pyridin-5-one] are 0.15 mg/kg, 2.2, 0.336 mg/kg and 8.8 min.
For `Cc1ccc2c3c(c(=O)oc2c1)CN(CC(C)N(C)C)CC3` (stereo not drawn) [H Me H Me Me, 3-[2-(Dimethylamino)propyl]-1,2,3,4-tetrahydro-8-methyl-5H-[1]-benzopyrano[3,4-c]pyridin-5-one], in that order: 0.114 mg/kg, 3.7, 0.421 mg/kg and 10.0 min.
Consider `CCN(CC)C(C)CN1CCc2c(c(=O)oc3cc(OC)c(OC)cc23)C1.Cl.Cl` (stereo not drawn) [MeO MeO H Et Et, 3-[2-(Diethylamino)propyl]-1,2,3,4-tetrahydro-8,9-dimethoxy-5H-[1]benzopyrano[3,4-c]pyridin-5-one dihydrochloride], for which, in assay [1], the ED50 is 0.073 mg/kg and the “Pulmonary Selectivity*” value is recorded as 3.5. In assay [2], the ED50 stood at 0.257 mg/kg. For the same compound, the “(Minutes Protection)” value in assay [3] amounted to 7.8 min.
On the same counts, the results for `COc1cc2oc(=O)c3c(c2cc1OC)CCN(CC(C)N(C)C)C3.Cl.Cl` (stereo not drawn) [MeO MeO H Me Me, 3-[2-(Dimethylamino)propyl]-1,2,3,4-tetrahydro-8,9-dimethoxy-5H-[1]benzopyrano[3,4-c]pyridin-5-one dihydrochloride] are 0.098 mg/kg, 4.5, 0.441 mg/kg and 5.2 min.

Source of the values: patent US4382939A, “3-[2-(Mono-and dialkylamino)propyl]-1,2,3,4-tetrahydro-5H-[1]benzopyrano[3,4-C]pyridin- 5-ones useful for treating bronchospastic diseases” (Warner Lambert Company, priority 1982, dated 1983).
